Test results as given in PubChem BioAssay (NCI).
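Where inhibition never reached the appropriate level, the endpoint shown equals the highest concentration tested. Otherwise, values were interpolated linearly from a five-concentration, 48-hour dose response in 96-well plates. TGI marks complete inhibition of growth.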

Legend:
Test in all cases: NCI tumour cell line growth inhibition, 48 h
MOLT-4 leukemia = tested on: MOLT-4 leukemia
HOP-92 NSCLC = tested on: HOP-92 NSCLC
OVCAR-8 ovarian = tested on: OVCAR-8 ovarian
UACC-62 melanoma = tested on: UACC-62 melanoma
BT-549 breast = tested on: BT-549 breast
ACHN renal = tested on: ACHN renal
EKVX NSCLC = tested on: EKVX NSCLC
SN12C renal = tested on: SN12C renal
NCI-H23 lung = tested on: NCI-H23 lung
LOX IMVI melanoma = tested on: LOX IMVI melanoma
SK-MEL-5 melanoma = tested on: SK-MEL-5 melanoma
A498 renal = tested on: A498 renal
TK-10 renal = tested on: TK-10 renal
HL-60(TB) leukemia = tested on: HL-60(TB) leukemia
SNB-75 CNS = tested on: SNB-75 CNS
SF-539 CNS = tested on: SF-539 CNS
A549 NSCLC = tested on: A549 NSCLC
UACC-257 melanoma = tested on: UACC-257 melanoma
RXF 393 renal = tested on: RXF 393 renal

## N#Cc1c(-c2ccc(Cl)cc2)c(C#N)c(=O)n(NS(=O)(=O)c2ccccc2)c1S
MOLT-4 leukemia
  TGI: > 100 µM
HOP-92 NSCLC
  TGI: > 100 µM
OVCAR-8 ovarian
  TGI: 65 µM
UACC-62 melanoma
  TGI: 58.3 µM
BT-549 breast
  TGI: 66.1 µM
ACHN renal
  TGI: 85.3 µM
EKVX NSCLC
  TGI: > 100 µM
SN12C renal
  TGI: 78 µM
NCI-H23 lung
  TGI: > 100 µM
LOX IMVI melanoma
  TGI: 50.6 µM
SK-MEL-5 melanoma
  TGI: 33.3 µM
A498 renal
  TGI: > 100 µM
TK-10 renal
  TGI: 70.6 µM
HL-60(TB) leukemia
  TGI: 60 µM
SNB-75 CNS
  TGI: > 100 µM
SF-539 CNS
  TGI: 42.1 µM
A549 NSCLC
  TGI: > 100 µM
UACC-257 melanoma
  TGI: > 100 µM
RXF 393 renal
  TGI: > 100 µM
